“And” between values parts separate entries of the source, which are not always exact repeats. Equal entries are not always repeated. Where two headings read alike, the source gives them in different places.
Tests used:
Ventr (exo-) polymerase = target: T1, Ventr (exo-) polymerase (Thermococcus litoralis, UniProt P30317, D141A/DEL1082-1471/DEL495-1032/E143A); type: biochemical; settings: for Amplification yield (% of C+): Ventr (exo-), 0.5 mM MnCl2
T1 construct: purchased New England Biolabs
Method: (§1) Control PCR condition: 2 units of Vent exo^−DNA polymerase were used in a 50 μL reaction volume containing 200 μM of each dNTPs, 10mM KCl, 10mM (NH4)2SO4, […] pH 8.8, 2mM MgSO4, 0.1% Triton™ X-100, 0.2 μM of each primers and 10ng of plasmid DNA. PCR were performed in a GeneAmp PCR system 9700 (Perkin-Elmer) as follows: 5 min at 95° C. (first denaturation), followed by 30 cycles of polymerisation [30 s at 95° C. (denaturation), 30 s at 65° C. (annealing) , 2 min at 72° C. (polymerisation)].
(§2) When a modified dNTPs ratio was used, fmal concentrations were 200 μM for dATP and dTTP and 800 μM for dCTP and dGTP.
Enzymatic activity of DNA polymerases has been determined by ethidium bromide staining of 1% agarose gel. Band intensity of 2 μL aliquots of amplicon issued from mutagenic PCR were compared to the intensity of bands obtained from several dilutions of standard PCR.
In order to assess the impact of the chemical stress induced by alcohols and urea on PCR, we measured the amplification yield was measured and compared it to that of a standard PCR. The size of a library generated by error-prone PCR is proportional to the amplification yield, therefore it is of a paramount importance to maintain the amplification yield as high as possible. Concentration of alcohol leading to a reduction in amplification yield was detected were chosen to determine their impact on amplified sequences. Such concentrations were defined as “critical” concentration of alcohol.

Taq polymerase = Taq polymerase (Thermus aquaticus, UniProt P19821); type: biochemical
[1] = target: Deep Ventr (exo-) polymerase (Pyrococcus sp., UniProt Q51334, D141A/DEL493-1029/E143A); type: biochemical, Pyrococcus species GB-D
[2] = target: T2, Ventr (exo-) DNA polymerase (Thermococcus litoralis, UniProt P30317, D141A/DEL1082-1471/DEL495-1032/E143A); type: biochemical
T2 construct: purchased New England Biolabs
Method: The template used for PCR is the gene coding for MB-1 His (384 bp) (Grundy J. et al., (1998) Journal of Biotechnology, 63:9-15) cloned in the 6.6kb pMAL-c2 vector (New England Biolabs, cat no. M0257S). The template was obtained by plasmid purification of E. coli with XL-1 Blue (Stratagene) Miniprep protocol (Qiagen) and quantified using UV spectrometry.
as §1, §2
pMAL-c2 vector (New England Biolabs) was digested with SacI and HindIII endonucleases (New England Biolabs) and gel purified (1% agarose) using Qiaex gel extraction kit (Qiagen) and Agarose A from LAB MAT. The 384 bp PCR products were also gel purified. […] The purified products were then concatenated in a kination/ligation using T4 Polynucleotide kinase and T4 DNA ligase (New England Biolabs) for 3 hours at room temperature followed by a restriction digestion using SacI and HindIII endonucleases for 5 hours at 37° C. Then, the digested PCR products were purified using PCR purification kit (Qiagen) and ligated with pMAL-c2 vector using T4 DNA ligase at 16° C. overnight.
5 μL of ligation product mixed with 50 μL of E. coli XL-1 Blue hypercompetent cells were incubated on ice for 30 min, heatshocked at 42° C. for 45 sec and re-incubated on ice for 2 min. Then, 1mL of SOC medium was added and the mixture was incubated for 1 hour at 37° C. with shaking. Transformed Cells were then selected on LB agar plates containing 100 μg/mL ampicillin.
Plasmids from transformant colonies were purified with Qiaprep Spin miniprep kit (Qiagen) and digested with SacI/HindIII to confirm the presence of the 384 bp fragment corresponding to MB-1 His gene. Plasmids were then sequenced by the dye-terminator method (Service d'analyse et de synthèse, Université Laval). Complete sequences were analysed with LFASTA software (Chao K. M. (1998), Comput. Appl. Biosci., 8:481-487), allowing for comparison of control and mutated DNA. Mutation rate and mutation types were calculated from such a comparison.

Taq DNA polymerase [3] = target: T3, Taq DNA polymerase (Thermus aquaticus, UniProt P19821); type: biochemical
[4] = target: T2, Ventr (exo-) DNA polymerase; test: PCR measuring maximal length of amplification; type: biochemical
Method: (§3) 100ng of genomic DNA from Actinobacillus pleuropneumoniae was used as template. PCR cycles were as follows: 7 min at 95° C., then 30 cycles of polymerisation [45 s at 95° C., 45 s at 53° C., 1 min at 72°^C].

Taq DNA polymerase [5] = target: T3, Taq DNA polymerase; settings: 0.5 mM MnCl2, Equimolar dNTPs
Method: as §3

[6] = Ventr (exo-) polymerase, concentration leading to reduction in amplification yield
[7] = concentration leading to reduction in amplification yield
[8] = Taq polymerase, concentration leading to reduction in amplification yield
[9] = Taq, 0.5 mM MnCl2, Equimolar dNTPs
[10] = Ventr (exo-), 0.5 mM MnCl2, AG/CT = 1/4
[11] = Ventr (exo-), 0.5 mM MnCl2, AG/CT = 1/4, % of total mutations
[12] = Ventr (exo-), 0.5 mM MnCl2, AT/GC = 1/4
[13] = Ventr (exo-), 0.5 mM MnCl2, AT/GC = 1/4, % of total mutations
[14] = Ventr (exo-), 0.5 mM MnCl2, Equimolar dNTPs
[15] = Ventr (exo-), 0.5 mM MnCl2, Equimolar dNTPs, % of total mutations
[16] = Ventr (exo-), 0.5 mM MnCl2, Equimolar dNTPs, listed as manganese
[17] = Taq, 0.5 mM MnCl2, Equimolar dNTPs, % of total mutations

T3 sequence (P19821 whole entry): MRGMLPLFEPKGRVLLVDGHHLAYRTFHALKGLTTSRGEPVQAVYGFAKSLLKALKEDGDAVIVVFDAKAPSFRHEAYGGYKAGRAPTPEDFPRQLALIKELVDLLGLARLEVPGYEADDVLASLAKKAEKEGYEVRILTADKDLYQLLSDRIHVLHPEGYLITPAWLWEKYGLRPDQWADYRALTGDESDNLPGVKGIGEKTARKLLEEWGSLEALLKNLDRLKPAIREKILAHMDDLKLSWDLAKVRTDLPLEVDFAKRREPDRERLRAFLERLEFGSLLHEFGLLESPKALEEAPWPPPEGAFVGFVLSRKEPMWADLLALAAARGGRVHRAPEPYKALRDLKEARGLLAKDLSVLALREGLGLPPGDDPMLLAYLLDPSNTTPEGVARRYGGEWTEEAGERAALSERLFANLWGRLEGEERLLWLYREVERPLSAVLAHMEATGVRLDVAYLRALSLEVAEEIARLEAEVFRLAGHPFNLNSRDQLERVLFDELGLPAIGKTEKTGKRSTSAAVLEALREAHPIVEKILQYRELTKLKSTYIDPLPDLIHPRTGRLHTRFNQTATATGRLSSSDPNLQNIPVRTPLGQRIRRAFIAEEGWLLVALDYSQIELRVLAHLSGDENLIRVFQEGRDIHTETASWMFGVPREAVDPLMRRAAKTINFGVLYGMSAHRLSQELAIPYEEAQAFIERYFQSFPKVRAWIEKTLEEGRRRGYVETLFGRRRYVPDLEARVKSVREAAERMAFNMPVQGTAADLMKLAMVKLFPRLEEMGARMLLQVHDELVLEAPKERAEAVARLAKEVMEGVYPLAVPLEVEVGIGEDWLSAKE
Taq polymerase, sequence (P19821 whole entry): as above
Deep Ventr (exo-) polymerase, sequence (Q51334 other isoform, or with tags, fused parts or gaps D141A/E143A/DEL493-1029): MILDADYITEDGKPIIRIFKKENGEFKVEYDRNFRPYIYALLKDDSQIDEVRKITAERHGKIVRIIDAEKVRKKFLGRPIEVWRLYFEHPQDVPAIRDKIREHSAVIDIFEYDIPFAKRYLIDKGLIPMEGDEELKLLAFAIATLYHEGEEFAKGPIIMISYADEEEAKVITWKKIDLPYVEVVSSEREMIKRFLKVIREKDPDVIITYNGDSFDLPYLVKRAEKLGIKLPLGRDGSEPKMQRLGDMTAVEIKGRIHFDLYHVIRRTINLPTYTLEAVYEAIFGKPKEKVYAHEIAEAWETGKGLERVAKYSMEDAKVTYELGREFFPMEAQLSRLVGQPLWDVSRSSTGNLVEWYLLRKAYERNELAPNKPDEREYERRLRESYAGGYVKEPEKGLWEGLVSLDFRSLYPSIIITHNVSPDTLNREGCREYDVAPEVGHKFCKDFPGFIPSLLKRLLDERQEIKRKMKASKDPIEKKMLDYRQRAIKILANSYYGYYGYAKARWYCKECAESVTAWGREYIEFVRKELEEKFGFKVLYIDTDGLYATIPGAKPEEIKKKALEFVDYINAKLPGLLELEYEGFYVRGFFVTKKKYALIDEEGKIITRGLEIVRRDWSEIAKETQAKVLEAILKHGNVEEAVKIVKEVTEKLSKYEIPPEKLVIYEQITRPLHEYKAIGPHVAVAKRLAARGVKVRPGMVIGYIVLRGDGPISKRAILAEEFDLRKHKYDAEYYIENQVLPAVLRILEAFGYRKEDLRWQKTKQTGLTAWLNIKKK
T2 sequence (P30317 other isoform, or with tags, fused parts or gaps D141A/E143A/DEL495-1032/DEL1082-1471): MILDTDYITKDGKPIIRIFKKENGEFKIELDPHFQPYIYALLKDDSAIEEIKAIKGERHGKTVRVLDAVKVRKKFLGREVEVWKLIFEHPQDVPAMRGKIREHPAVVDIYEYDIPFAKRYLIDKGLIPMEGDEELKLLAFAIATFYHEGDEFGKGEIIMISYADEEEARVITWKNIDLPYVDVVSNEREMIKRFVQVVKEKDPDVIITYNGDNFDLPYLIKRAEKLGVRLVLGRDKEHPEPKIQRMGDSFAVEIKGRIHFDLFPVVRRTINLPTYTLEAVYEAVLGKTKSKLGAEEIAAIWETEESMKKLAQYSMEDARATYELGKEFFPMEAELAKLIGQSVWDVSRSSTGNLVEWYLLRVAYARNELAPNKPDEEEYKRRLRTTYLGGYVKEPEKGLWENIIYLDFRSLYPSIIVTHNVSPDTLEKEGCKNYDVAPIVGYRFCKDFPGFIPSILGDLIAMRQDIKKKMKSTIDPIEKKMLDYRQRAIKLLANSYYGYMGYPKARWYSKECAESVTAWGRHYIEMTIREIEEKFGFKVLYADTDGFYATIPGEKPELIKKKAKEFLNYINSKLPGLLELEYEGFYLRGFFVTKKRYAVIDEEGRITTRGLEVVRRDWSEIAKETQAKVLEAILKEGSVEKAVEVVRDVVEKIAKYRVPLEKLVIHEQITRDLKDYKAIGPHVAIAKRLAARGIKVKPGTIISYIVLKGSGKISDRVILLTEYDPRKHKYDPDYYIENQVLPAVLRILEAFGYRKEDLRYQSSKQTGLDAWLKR
T1 sequence (P30317 other isoform, or with tags, fused parts or gaps D141A/E143A/DEL495-1032/DEL1082-1471): as above

CC(C)O [Isopropanol]
Critical concentration (Ventr (exo-) polymerase; [6]): 10.0 % v/v

CCCO [Propanol, 1-propanol]
Amplification yield (% of C+) (Taq polymerase): 50 % of C+
Critical concentration (Taq polymerase): 2.5 % v/v
polymerisation activity (Taq polymerase): no polymerisation activity
Critical concentration (Ventr (exo-) polymerase): 8.0 % v/v
polymerisation activity (Ventr (exo-) polymerase): no polymerisation activity
Critical concentration [1, 7]: 8.0 % v/v
Bias indicator A, T turns N [2]: 25% and 24% and 14%
Bias indicator G, C turns N [2]: 67% and 62% and 86%
Bias indicator N turns A, T [2]: 67% and 71%
Mutation Frequency [2]: 0.98% and 0.27% and 0.58%
mutation of guanines and cytosines, of total mutations [2]: 67%
Deletion Frequency (Taq DNA polymerase [3]): 0.04%
Mutation Frequency (Taq DNA polymerase [3]): 0.13%
mutations found (Taq DNA polymerase [3]): 3

NC(N)=O [Urea]
Critical concentration (Taq polymerase; [8]): 1.2 % v/v
Critical concentration (Taq polymerase; Taq polymerase, in molar): (0.20 M)
Critical concentration (Ventr (exo-) polymerase; [6]): 1.5 % v/v
Critical concentration (Ventr (exo-) polymerase; Ventr (exo-) polymerase, in molar): (0.25 M)
Critical concentration [1, 7]: 1.5 % v/v
Critical concentration ([1]; in molar): (0.25 M)
mutation detected in PCR ([2]; Ventr (exo-), critical concentration of urea, more than 2000 nucleotides sequenced): did not detect mutation
mutation detected in PCR (Taq DNA polymerase [3]; Taq, critical concentration of urea, more than 2000 nucleotides sequenced): did not detect mutation

Butanol
Critical concentration (Taq polymerase; [8]): 1.0 % v/v
Critical concentration (Ventr (exo-) polymerase; [6]): 4.0 % v/v
Critical concentration [1, 7]: 6.0 % v/v

manganese chloride [MnCl2]
Amplification yield (% of C+) (Taq polymerase; [9]): 75 % of C+
Amplification yield (% of C+) (Ventr (exo-) polymerase; AG/CT = 1/4): 75 % of C+
Amplification yield (% of C+) (Ventr (exo-) polymerase; AT/GC = 1/4): 75 % of C+
Amplification yield (% of C+) (Ventr (exo-) polymerase; Equimolar dNTPs): 75 % of C+
Deletion Frequency [2, 10]: 0.03%
Mutation Frequency [2, 10]: 2.30%
Bias indicator A, T turns N [2, 11]: 30%
Bias indicator G, C turns N [2, 11]: 67%
Bias indicator N turns A, T [2, 11]: 73%
Deletion Frequency [2, 12]: 0.00%
Mutation Frequency [2, 12]: 0.52%
Bias indicator A, T turns N [2, 13]: 88%
Bias indicator G, C turns N [2, 13]: 12%
Bias indicator N turns A, T [2, 13]: 25%
Deletion Frequency [2, 14]: 0.00%
Mutation Frequency [2, 14]: 3.70%
Bias indicator A, T turns N [2, 15]: 23%
Bias indicator G, C turns N [2, 15]: 77%
Bias indicator N turns A, T [2, 15]: 83%
Deletion Frequency [2, 16]: without insertion or deletion
Mutation Frequency [2, 16]: 3.7%
Deletion Frequency (Taq DNA polymerase [3]; [9]): 0.04%
Mutation Frequency (Taq DNA polymerase [3]; [9]): 8.48%
Bias indicator A, T turns N (Taq DNA polymerase [3]; [17]): 72%
Bias indicator G, C turns N (Taq DNA polymerase [3]; [17]): 24%
Bias indicator N turns A, T (Taq DNA polymerase [3]; [17]): 43%
Maximal lenght of amplification ([4]; 0.5 mM MnCl2, AG/CT = 1/4): 0.8 kb
Maximal lenght of amplification ([4]; 0.5 mM MnCl2, AT/GC = 1/4): 1.6 kb
Maximal lenght of amplification ([4]; 0.5 mM MnCl2, Equimolar dNTPs): 0.8 kb
Maximal lenght of amplification (Taq DNA polymerase [5]): 0.4 kb
